Assay results reported in patent US20240158446A1, “CYCLIC COMPOUND HAVING SELECTIVE INHIBITORY ACTION ON KRAS OVER HRAS AND NRAS” (CHUGAI SEIYAKU KABUSHIKI KAISHA, priority 2021, published 2024).
Where a SMILES comes first, the peptide text is derived from it. Bridges are numbered along the chain shown (N, C = ends). [ ]: non-standard residue; d: D form. The star is where a group is joined. hPhe(3-Cl-4-CF3) = N[C@@H](CCc1ccc(C(F)(F)F)c(Cl)c1)C(=O)O; NPrPhe(4-CF3) = CCCN[C@@H](Cc1ccc(C(F)(F)F)cc1)C(=O)O; NEtPhe(4-CF3) = CCN[C@@H](Cc1ccc(C(F)(F)F)cc1)C(=O)O; NMePhe(4-Me) = CN[C@@H](Cc1ccc(C)cc1)C(=O)O; NMeGly(cPent) = CN[C@H](C(=O)O)C1CCCC1; Hyp = O=C(O)[C@@H]1C[C@@H](O)CN1; NMeD = CN[C@@H](CC(=O)O)C(=O)O; NMeL = CN[C@@H](CC(C)C)C(=O)O; Ac6c = NC1(C(=O)O)CCCCC1; Morpholide = C1CN(*)CCO1; NMeA = CN[C@@H](C)C(=O)O; Ac5c = NC1(C(=O)O)CCCC1; Aze = O=C(O)[C@@H]1CCN1; Ac4c = NC1(C(=O)O)CCC1; NPrGly = CCCNCC(=O)O; NEtG = CCNCC(=O)O; Sar = CNCC(=O)O

Columns and labels:
[1] = molecular target: GDP-bound KRAS wild-type protein (Homo sapiens, UniProt P01116); assay: Binding to KRAS by surface plasmon resonance (SPR), Single Cycle Kinetics; conditions: SPR Single Cycle Kinetics, GDP-bound KRAS wild-type protein, 1:1 binding model; read-out: KRAS KD
Sequence of GDP-bound KRAS wild-type protein (P01116 whole entry): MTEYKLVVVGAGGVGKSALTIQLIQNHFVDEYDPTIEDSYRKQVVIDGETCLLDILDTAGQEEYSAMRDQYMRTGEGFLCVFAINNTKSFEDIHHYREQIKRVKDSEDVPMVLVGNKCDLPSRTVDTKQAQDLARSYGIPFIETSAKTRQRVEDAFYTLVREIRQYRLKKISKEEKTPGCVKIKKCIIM

[2] = molecular target: GDP-bound HRAS wild-type protein (Homo sapiens, UniProt P01112); assay: Binding to HRAS by surface plasmon resonance (SPR), Single Cycle Kinetics; conditions: for HRAS/KRAS (ratio of KD value with respect to GDP-bound HRAS wild-type protein to KD value with respect to KRAS): SPR KD ratio HRAS/KRAS, class symbols
Sequence of GDP-bound HRAS wild-type protein (P01112 whole entry): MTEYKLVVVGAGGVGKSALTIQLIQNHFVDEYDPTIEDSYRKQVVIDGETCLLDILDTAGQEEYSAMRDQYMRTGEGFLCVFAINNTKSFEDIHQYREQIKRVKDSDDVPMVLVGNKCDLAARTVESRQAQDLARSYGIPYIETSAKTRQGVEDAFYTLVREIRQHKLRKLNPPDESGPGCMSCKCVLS

[3] = molecular target: GDP-bound NRAS wild-type protein (Homo sapiens, UniProt P01111); assay: Binding to NRAS by surface plasmon resonance (SPR), Single Cycle Kinetics; conditions: for NRAS/KRAS (ratio of KD value with respect to GDP-bound NRAS wild-type protein to KD value with respect to KRAS): SPR KD ratio NRAS/KRAS, class symbols
Sequence of GDP-bound NRAS wild-type protein (P01111 whole entry): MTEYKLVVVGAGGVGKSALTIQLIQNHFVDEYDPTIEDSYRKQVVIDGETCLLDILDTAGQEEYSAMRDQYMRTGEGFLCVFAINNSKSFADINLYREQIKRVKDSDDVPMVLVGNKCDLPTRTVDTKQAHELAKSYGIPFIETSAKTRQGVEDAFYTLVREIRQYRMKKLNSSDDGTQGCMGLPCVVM

[4] = SPR, GDP-bound HRAS wild-type protein vs GDP-bound KRAS wild-type protein
[5] = SPR, GDP-bound NRAS wild-type protein vs GDP-bound KRAS wild-type protein

| Kd [1] | SMILES | HRAS/KRAS (ratio of KD value with respect to GDP-bound HRAS wild-type protein to KD value with respect to KRAS) [2] | NRAS/KRAS (ratio of KD value with respect to GDP-bound NRAS wild-type protein to KD value with respect to KRAS) [3] | HRAS/KRAS (ratio of KD value with respect to HRAS to KD value with respect to KRAS) [2, 4] | NRAS/KRAS (ratio of KD value with respect to NRAS to KD value with respect to KRAS) [3, 5] | HRAS/KRAS (ratio of KD value for HRAS to KD value for KRAS) [2, 4] | NRAS/KRAS (ratio of KD value for NRAS to KD value for KRAS) [3, 5] |
| --- | --- | --- | --- | --- | --- | --- | --- |
| 0.13 nM | CCO[C@@H]1C[C@H]2C(=O)NC3(CC(C)(C)C3)C(=O)N(C)[C@@H](C3CCCC3)C(=O)N(C)[C@H](C(=O)N(C)CC)CC(=O)N(C)[C@@H](CC)C(=O)N[C@@H]([C@@H](C)CC)C(=O)N(C)CC(=O)N(C)[C@H]3C/C=C\CCN(C3=O)[C@@H](Cc3ccc(C(F)(F)F)cc3)C(=O)N(C)CC(=O)N[C@@H](CCc3ccc(C(F)(F)F)c(Cl)c3)C(=O)N2C1 [PP2823] | A (a compound having 10 or more and less than 20 is denoted as A) | A (a compound having 10 or more and less than 20 is denoted as A) | – | – | – | – |
| 0.55 nM | CC[C@H](C)[C@@H]1NC(=O)[C@H](C)N(C)C(=O)C[C@@H](C(=O)N(C)C)N(C)C(=O)[C@H](C2CCCC2)N(C)C(=O)C2(CCC2)NC(=O)[C@@H]2CCCN2C(=O)[C@H](CCc2cc(F)c(C(F)(F)F)c(F)c2)NC(=O)CN(C)C(=O)[C@H](Cc2ccc(C(F)(F)F)cc2)N2CCCCC[C@@H](C2=O)N(C)C(=O)CN(C)C1=O [PP0470] | – | – | B (a compound having 3 or more and less than 10 is denoted as B) | B (a compound having 3 or more and less than 10 is denoted as B) | – | – |
| 2.4 nM | CC[C@H](C)[C@@H]1NC(=O)[C@H](CC(C)C)N(C)C(=O)C[C@@H](C(=O)N2CCOCC2)N(C)C(=O)[C@H](C2CCCC2)N(C)C(=O)C2(CCCC2)NC(=O)[C@@H]2CCCN2C(=O)[C@H](CCc2ccc(C(F)(F)F)c(Cl)c2)NC(=O)CN(CC)C(=O)[C@H](Cc2ccc(C)cc2)N(C)C(=O)[C@@H]2CCN2C(=O)[C@H](C)N(C)C1=O [PP0004] ([NMeL]I[NMeA][Aze][NMePhe(4-Me)][NEtG][hPhe(3-Cl-4-CF3)]P[Ac5c][NMeGly(cPent)][NMeD]-Morpholide; lactam N-11) | – | – | – | – | C (A compound having a KD ratio of 0.1 or more and less than 3 is denoted as C) | C (A compound having a KD ratio of 0.1 or more and less than 3 is denoted as C) |
| 0.099 nM | CCO[C@@H]1C[C@H]2C(=O)NC3(CCC3)C(=O)N(C)[C@@H](C3CCCC3)C(=O)N(C)[C@H](C(=O)N(C)C)CC(=O)N(C)[C@@H](CC3CCCC3)C(=O)N[C@@H]([C@@H](C)CC)C(=O)N(C)CC(=O)N(C)[C@H]3C/C=C\CCN(C3=O)[C@@H](Cc3ccc(C)cc3)C(=O)N(C)CC(=O)N[C@@H](CCc3cc(Cl)c(C(F)(F)F)c(Cl)c3)C(=O)N2C1 [PP2679] | A (a compound having 10 or more and less than 20 is denoted as A) | A (a compound having 10 or more and less than 20 is denoted as A) | – | – | – | – |
| 0.54 nM | CC[C@H](C)[C@@H]1NC(=O)[C@H](CC(C)C)N(C)C(=O)C[C@@H](C(=O)N2CCOCC2)N(C)C(=O)[C@H](C2CCCC2)N(C)C(=O)C2(CCCCC2)NC(=O)[C@@H]2CCCN2C(=O)[C@H](CCc2ccc(C(F)(F)F)c(Cl)c2)NC(=O)CN(C)C(=O)[C@H](Cc2ccc(C(F)(F)F)cc2)N(CC)C(=O)CN(C)C(=O)CN(C)C1=O [PP0236] ([NMeL]I[Sar][Sar][NEtPhe(4-CF3)][Sar][hPhe(3-Cl-4-CF3)]P[Ac6c][NMeGly(cPent)][NMeD]-Morpholide; lactam N-11) | – | – | – | – | C (A compound having a KD ratio of 0.1 or more and less than 3 is denoted as C) | B (a compound having 3 or more and less than 10 is denoted as B) |
| 0.25 nM | CCCN1C(=O)CN(C)C(=O)CN(C)C(=O)[C@H]([C@@H](C)CC)NC(=O)[C@H](CC(C)C)N(C)C(=O)C[C@@H](C(=O)N(C)C)NC(=O)[C@H](C2CCCC2)N(C)C(=O)C2(CCC2)NC(=O)[C@@H]2C[C@@H](OCC)CN2C(=O)[C@H](CCc2ccc(C(F)(F)F)c(Cl)c2)NC(=O)CN(C)C(=O)[C@@H]1Cc1ccc(C(F)(F)F)cc1 [PP0360] ([NMeL]I[Sar][Sar][NPrPhe(4-CF3)][Sar][hPhe(3-Cl-4-CF3)][Hyp](Et)[Ac4c][NMeGly(cPent)]D-NMe2; lactam N-11) | – | – | – | – | C (A compound having a KD ratio of 0.1 or more and less than 3 is denoted as C) | B (a compound having 3 or more and less than 10 is denoted as B) |
| 0.77 nM | CCCN1CC(=O)N(C)[C@@H](Cc2ccc(C)cc2)C(=O)N(C)CC(=O)N[C@@H](CCc2ccc(C(F)(F)F)c(Cl)c2)C(=O)N2CCC[C@H]2C(=O)NC2(CCCC2)C(=O)N(C)[C@@H](C2CCCC2)C(=O)N(C)[C@H](C(=O)N2CCOCC2)CC(=O)N(C)[C@@H](CC(C)C)C(=O)N[C@@H]([C@@H](C)CC)C(=O)N(C)CC1=O [PP0020] ([NMeL]I[Sar][NPrGly][NMePhe(4-Me)][Sar][hPhe(3-Cl-4-CF3)]P[Ac5c][NMeGly(cPent)][NMeD]-Morpholide; lactam N-11) | – | – | – | – | C (A compound having a KD ratio of 0.1 or more and less than 3 is denoted as C) | C (A compound having a KD ratio of 0.1 or more and less than 3 is denoted as C) |
